One block for each molecule: values may come before it.
What was measured:
[1] = Enzyme kinetics of 4(S)-hydroxyevogliptin glucuronidation in pooled human liver microsomes; type: in vitro ADME
Description: Therefore, a 20 min incubation time and 0.2 mg/mL microsomal protein concentration were selected for enzyme kinetics experiments. The reaction mixture comprised 50 mM Tris buffer (pH 7.4), 10 mM magnesium chloride, 0.025 mg/mL alamethicin, pooled human liver microsomes (20 μg protein), and various concentrations of 4(S)-hydroxyevogliptin (M2) (10 to 2,000 μM; final acetonitrile concentration not exceeding 0.5%, v/v), and was preincubated for 3 min at 37 °C. The reaction was initiated by adding UDPGA, and the mixture was further incubated (final volume of 100 μL) for 20 min at 37 °C in a shaking water bath. The reaction was stopped by adding 100 μL of MPPI (internal standard, 50 ng/mL) in ice-cold acetonitrile. The mixture was centrifuged at 13,000 rpm for 4 min at 4 °C. […]
Results represent the average of three independent experiments using human liver microsomes and human cDNA-expressed CYP and UGT enzymes. The kinetic parameters (Km and Vmax) for hydroxylation and glucuronidation were determined using the Michaelis-Menten equation [V = Vmax·S/(Km + S)], the Hill equation [V = Vmax·S^n/(Km^n + S^n)], or the isoenzyme equation [V = Vmax1·(S/Km1)/(1 + S/Km1) + Vmax2·(S/Km2)/(1 + S/Km2)] with the Enzyme Kinetics software (version 1.3; Systat Software Inc.). […] The intrinsic clearance (Clint) was calculated as Vmax/Km.

[2] = Enzyme kinetics of evogliptin hydroxylation in pooled human liver microsomes; type: in vitro ADME; conditions: single-enzyme kinetics; for Km at 20 min: human, pH 7.4, Km
Description: Thus, a 20 min incubation time and 0.15 mg/mL microsomal protein concentration were used in subsequent experiments. […] The mixture was centrifuged at 13,000 rpm for 4 min at 4 °C. Subsequently, 50 μL of the supernatant were diluted with 50 μL of deionized water and an aliquot (5 μL) was injected onto the LC-MS/MS system. Results represent the average of three independent experiments using human liver microsomes and human cDNA-expressed CYP and UGT enzymes. […] Systat Software Inc.). In the above-mentioned equations, V was the velocity of the reaction at substrate concentration [S], Vmax was the maximum velocity, Km was the substrate concentration at which the V was half of Vmax, and n is the Hill constant. The intrinsic clearance (Clint) was calculated as Vmax/Km.

[3] = substrate: CC(C)(C)OC[C@@H]1C(=O)NCCN1C(=O)C[C@H](N)[C@@H](O)c1cc(F)c(F)cc1F; experiment: Enzyme kinetics of 4(S)-hydroxyevogliptin glucuronidation in human cDNA-expressed UGT2B4; type: in vitro ADME; conditions: other: UGT2B4, single-enzyme kinetics; pH 7.4; 37.0 °C
Description: (§1) For the enzyme kinetic study, various concentrations of 4(S)-hydroxyevogliptin (M2) (25 to 2000 μM; final acetonitrile concentration not exceeding 0.5%, v/v) were incubated with human cDNA-expressed UGT2B4 or UGT2B7 enzymes (20 μg protein), 2 mM UDPGA, 0.025 mg/mL alamethicin, and 10 mM magnesium chloride in 50 mM Tris buffer (pH 7.4) for 20 min at 37 °C in a shaking water bath. After adding ice-cold acetonitrile containing internal standard (MPPI, 50 ng/mL), the mixture was centrifuged and diluted as described above, and an aliquot (5 μL) was analyzed using the LC-MS/MS system.
(§2) Results represent the average of three independent experiments using human liver microsomes and human cDNA-expressed CYP and UGT enzymes. The kinetic parameters (Km and Vmax) for hydroxylation and glucuronidation were determined using the Michaelis-Menten equation [V = Vmax·S/(Km + S)], the Hill equation [V = Vmax·S^n/(Km^n + S^n)], or the isoenzyme equation [V = Vmax1·(S/Km1)/(1 + S/Km1) + Vmax2·(S/Km2)/(1 + S/Km2)] with the Enzyme Kinetics software (version 1.3; Systat Software Inc.). In the above-mentioned equations, V was the velocity of the reaction at substrate concentration [S], Vmax was the maximum velocity, Km was the substrate concentration at which the V was half of Vmax, and n is the Hill constant. The intrinsic clearance (Clint) was calculated as Vmax/Km.

[4] = substrate: CC(C)(C)OC[C@@H]1C(=O)NCCN1C(=O)C[C@H](N)[C@@H](O)c1cc(F)c(F)cc1F; experiment: Enzyme kinetics of 4(S)-hydroxyevogliptin glucuronidation in human cDNA-expressed UGT2B7; type: in vitro ADME; conditions: other: UGT2B7, Hill equation kinetics; pH 7.4; 37.0 °C
Description: as §1, §2

not read = substrate: CC(C)(C)OC[C@@H]1C(=O)NCCN1C(=O)C[C@H](N)Cc1cc(F)c(F)cc1F; experiment: not read; conditions: other: CYP3A5, single-enzyme kinetics; pH 7.4; 37.0 °C

Vmax, formation of 4(S)-hydroxyevogliptin glucuronide (M4) ([1]; Hill equation): 711.4 pmol/mg protein/min
Km at 20 min ([1]; pH 7.4, Hill equation): 928 µM
Molecule: CC(C)(C)OC[C@@H]1C(=O)NCCN1C(=O)C[C@H](N)[C@@H](O)c1cc(F)c(F)cc1F [4(S)-hydroxyevogliptin]

Molecule: CC(C)(C)OC[C@@H]1C(=O)NCCN1C(=O)C[C@H](N)Cc1cc(F)c(F)cc1F [evogliptin, (R)-4-((R)-3-amino-4-(2,4,5-trifluorophenyl)butanoyl)-3-(tert-butoxymethyl)-piperazin-2-one]
Km at 20 min ([2]; formation of 4(R)-hydroxyevogliptin (M3)): 124 µM
Km at 20 min ([2]; formation of 4(S)-hydroxyevogliptin (M2)): 93.4 µM
Vmax, formation of 4(R)-hydroxyevogliptin (M3) [2]: 113.0 pmol/min/mg protein
Vmax, formation of 4(S)-hydroxyevogliptin (M2) [2]: 91.9 pmol/min/mg protein

B1: UGT2B4 (Homo sapiens) (protein)
chain: GKVLVWPTEFSHWMNIKTILDELVQRGHEVTVLASSASISFDPNSPSTLKFEVYPVSLTKTEFEDIIKQLVKRWAELPKDTFWSYFSQVQEIMWTFNDILRKFCKDIVSNKKLMKKLQESRFDVVLADAVFPFGELLAELLKIPFVYSLRFSPGYAIEKHSGGLLFPPSYVPVVMSELSDQMTFIERVKNMIYVLYFEFWFQIFDMKKWDQFYSEVLGRPTTLSETMAKADIWLIRNYWDFQFPHPLLPNVEFVGGLHCKPAKPLPKEMEEFVQSSGENGVVVFSLGSMVSNTSEERANVIASALAKIPQKVLWRFDGNKPDTLGLNTRLYKWIPQNDLLGHPKTRAFITHGGANGIYEAIYHGIPMVGVPLFADQPDNIAHMKAKGAAVSLDFHTMSSTDLLNALKTVINDPLYKENAMKLSRIHHDQPVKPLDRAVFWIEFVMRHKGAKHLRVAAHDLTWFQYHSLDVTGFLLACVATVIFIITKCLFCVWKFVRTGKKGKRD
notes: purchased Corning Life Sciences
Km [3]: 1,328 μM

B2: UGT2B7 (Homo sapiens) (protein)
chain: GKVLVWAAEYSHWMNIKTILDELIQRGHEVTVLASSASILFDPNNSSALKIEIYPTSLTKTELENFIMQQIKRWSDLPKDTFWLYFSQVQEIMSIFGDITRKFCKDVVSNKKFMKKVQESRFDVIFADAIFPCSELLAELFNIPFVYSLSFSPGYTFEKHSGGFIFPPSYVPVVMSELTDQMTFMERVKNMIYVLYFDFWFEIFDMKKWDQFYSEVLGRPTTLSETMGKADVWLIRNSWNFQFPYPLLPNVDFVGGLHCKPAKPLPKEMEDFVQSSGENGVVVFSLGSMVSNMTEERANVIASALAQIPQKVLWRFDGNKPDTLGLNTRLYKWIPQNDLLGHPKTRAFITHGGANGIYEAIYHGIPMVGIPLFADQPDNIAHMKARGAAVRVDFNTMSSTDLLNALKRVINDPSYKENVMKLSRIQHDQPVKPLDRAVFWIEFVMRHKGAKHLRVAAHDLTWFQYHSLDVIGFLLVCVATVIFIVTKCCLFCFWKFARKAKKGKND
notes: purchased Corning Life Sciences (Woburn, MA, USA)
Km [4]: 1003.8 µM

B3: CYP3A5 (Homo sapiens) (protein)
chain: MDLIPNLAVETWLLLAVSLVLLYLYGTRTHGLFKRLGIPGPTPLPLLGNVLSYRQGLWKFDTECYKKYGKMWGTYEGQLPVLAITDPDVIRTVLVKECYSVFTNRRSLGPVGFMKSAISLAEDEEWKRIRSLLSPTFTSGKLKEMFPIIAQYGDVLVRNLRREAEKGKPVTLKDIFGAYSMDVITGTSFGVNIDSLNNPQDPFVESTKKFLKFGFLDPLFLSIILFPFLTPVFEALNVSLFPKDTINFLSKSVNRMKKSRLNDKQKHRLDFLQLMIDSQNSKETESHKALSDLELAAQSIIFIFAGYETTSSVLSFTLYELATHPDVQQKLQKEIDAVLPNKAPPTYDAVVQMEYLDMVVNETLRLFPVAIRLERTCKKDVEINGVFIPKGSMVVIPTYALHHDPKYWTEPEEFRPERFSKKKDSIDPYIYTPFGTGPRNCIGMRFALMNMKLALIRVLQNFSFKPCKETQIPLKLDTQGLLQPEKPIVLKVDSRDGTLSGE
kcat (not read): 19.5 pmol/min/pmol CYP
